In US4642340A, “Stable compounds of glucosamine sulphate” (Rotta Research Laboratorium S.p.A., priority 1981, dated 1987):
Structures can show the parent of a compound that is named as a salt. Where two headings read alike, the source gives them in different places.

How the values were obtained:
[1] = Solubility at 25° C. (w/v), saturated solutions, Elson-Morgan colorimetric method; format: physicochemical; conditions: for solubility thermodynamic: w/v
Method: Solubility (at 25° C.--w/v).
This test was carried out by preparing saturated solutions of glucosamine-SP in various solvents and determining the concentration of the glucosamine by the Elson-Morgan colorimetric method mentioned above.

pH of aqueous solution = format: physicochemical
Method: The pH of an aqueous saturated solution of glucosamine-SP at 20° C. is 3.0±0.2.

mice-embryo fibroblast [2] = experiment: Stimulation of the production of soluble GAG in mice-embryo fibroblast cultures, uptake of ^35 S; format: cell-based, mice (strain C57 BL/6 stCrl)
Method: (§2) For this purpose, primary cultures of mice-embryo fibroblasts (strain C57 BL/6 stCrl) were prepared by mechanical and enzymatic dissociation (in Trypsin Versene mixture-Microbiological Associates) of the embryos taken from the mother on the 18th day of pregnancy. The culture medium is the Eagle medium modified by Dulbecco and supplemented with 15% of calf foetus serum. The incubation atmosphere consists of 5% of carbon dioxide in air at 37° C. 24 hours after innoculation, the medium is replaced by a new medium containing the drug under examination and the radioactive precursor (Na2^35 SO4) for the measurement of the synthesis both of soluble and tissue-bound GAG; the culture is left to incubate for a further 24 hours and then the culture medium (containing the soluble GAG) and fibroblasts (containing the tissue-bound GAG) are separated.
(§3) The soluble GAG are isolated from the culture medium by precipitation with a solution of 5% trichloroacetic acid in ice-water while the fibroblast residues, containing the tissue-bound GAG, after repeated washings with physiological solutions, are dissolved in [sequence] or VERSENE.
(§4) The quantity of ^35 S incorporated both in the soluble GAG and in the tissue-bound GAG are evaluated by the usual scintillation methods and expressed in cpm (counts per minute).
(§5) The tests were carried out five times for each sample in order to allow the results to be evaluated statistically.

mice-embryo fibroblast [3] = experiment: Stimulation of the production of tissue-bound GAG in mice-embryo fibroblast cultures, uptake of ^35 S; format: cell-based, mice (strain C57 BL/6 stCrl)
Method: as §2, §3, §4, §5

[4] = system: granuloma from cotton pellets; experiment: Anti-inflammatory activity, granuloma induced by cotton pellets; format: in vivo, female albino rats of the Sprague Dawley strain; conditions: for Average dry weight of the granuloma (average ± s.e.): in mg (unit assumed)
Method: The test consists of evaluating the capacity of the substances under examination to inhibit the formation of granuloma following the subcutaneous implantation of extraneous bodies (in this case, cotton pellets). […] One group of animals was used as a control. […] After the subcutaneous implant of 2 cotton pellets each having a weight of 20 mg into the dorsal region, the animals were administered daily, for 4 consecutive days, with the substances under examination in the doses given above.

Acute toxicity in mice = experiment: Acute toxicity in mice; set-up: species or system Swiss NMRI mice; conditions: mouse, in vivo; for LD50 at 240 h: 10 days observation, read-out: DL50
Description: Swiss NMRI mice having an average weight of 20±2 g, subdivided in groups of 10 animals (5 females and 5 males) were used for each dose and for each method of administration.
The methods of administration were: oral by means of gastric probe, intramuscular and endovenous into the caudal vein.
(§1) The observation time after administration was 10 days.

Acute toxicity in rats = experiment: Acute toxicity in rats; set-up: species or system Sprague Dawley albino rats; conditions: rat, in vivo; for LD50 at 240 h: 10 days observation, read-out: DL50
Description: Sprague Dawley albino rats having an average weight of about 150 g, subdivided into groups of 10 animals (5 males and 5 females) were used for each dose and for each method of administration.
The methods of administration were: oral by means of a gastric probe, intramuscular and endovenous into the caudal vein.
as §1

physchem = conditions: solid storage
[5] = 375 mg/kg/os daily, 4 days (= 300 mg/kg glucosamine sulphate)
[6] = 750 mg/kg/os daily, 4 days (= 600 mg/kg glucosamine sulphate)
[7] = im, intramuscular, max. dose 3750 mg/kg
[8] = iv, endovenous, max. dose 1875 mg/kg

Compound: N[C@H]1C(O)O[C@H](CO)[C@@H](O)[C@@H]1O (stereo partly shown) [Glucosamine-SP, mixed salt of glucosamine sulphate and sodium chloride]
- Solubility (in words) ([1]; benzene, chloroform, carbon tetrachloride, methylene chloride, ligroin, ethyl ether): insoluble
- solubility thermodynamic ([1]; organic solvent or mixture, acetone, acetonitrile, tetrahydrofuran, dioxan (each)): < 100 µg/mL
- solubility thermodynamic ([1]; organic solvent or mixture, ethanol): ~300 µg/mL
- solubility thermodynamic ([1]; organic solvent or mixture, methanol): ~10000 µg/mL
- solubility thermodynamic ([1]; water): ~400000 µg/mL
- pH of an aqueous saturated solution (pH of aqueous solution; 20° C.): 3.0±0.2
- natural pH at the concentrations used (pH of aqueous solution; injectable phial concentrations): about 3
- Soluble GAG synthesis, average ± s.e. (mice-embryo fibroblast [2]; 12.5 γ/ml): 6750 ± 718 cpm
- Soluble GAG synthesis, average ± s.e. (mice-embryo fibroblast [2]; 62.5 γ/ml): 12730 ± 1201 cpm
- Soluble GAG synthesis, average ± s.e. (mice-embryo fibroblast [2]; 125 γ/ml): 12440 ± 1473 cpm
- activation at 12.5 µg/mL (mice-embryo fibroblast [2]; Mus musculus, Fibroblast, 24 h, 12.5 γ/ml, read-out: Δ % over non-treated controls, soluble GAG): 15.8%
- activation at 62.5 µg/mL (mice-embryo fibroblast [2]; Mus musculus, Fibroblast, 24 h, 62.5 γ/ml, read-out: Δ % over non-treated controls, soluble GAG): 118%
- activation at 125 µg/mL (mice-embryo fibroblast [2]; Mus musculus, Fibroblast, 24 h, 125 γ/ml, read-out: Δ % over non-treated controls, soluble GAG): 113%
- Tissue-bound GAG synthesis (mice-embryo fibroblast [3]; 12.5 γ/ml): 5490 ± 604 cpm
- Tissue-bound GAG synthesis (mice-embryo fibroblast [3]; 62.5 γ/ml): 7780 ± 612 cpm
- Tissue-bound GAG synthesis (mice-embryo fibroblast [3]; 125 γ/ml): 8320 ± 1295 cpm
- activation at 12.5 µg/mL (mice-embryo fibroblast [3]; Mus musculus, Fibroblast, 24 h, 12.5 γ/ml, read-out: Δ % over non-treated controls, tissue-bound GAG): 17.3%
- activation at 62.5 µg/mL (mice-embryo fibroblast [3]; Mus musculus, Fibroblast, 24 h, 62.5 γ/ml, read-out: Δ % over non-treated controls, tissue-bound GAG): 66.2%
- activation at 125 µg/mL (mice-embryo fibroblast [3]; Mus musculus, Fibroblast, 24 h, 125 γ/ml, read-out: Δ % over non-treated controls, tissue-bound GAG): 77.8%
- % Inhibition of granuloma [4, 5]: 38.7%
- Average dry weight of the granuloma (average ± s.e.) [4, 5]: 94.6 ± 10.7
- % Inhibition of granuloma [4, 6]: 58.0%
- Average dry weight of the granuloma (average ± s.e.) [4, 6]: 64.8 ± 7.0
- LD50 at 240 h (Acute toxicity in mice; im, intramuscular): > 3750 mg/kg
- mortality at 240 h (Acute toxicity in mice; [7]): 0%
- LD50 at 240 h (Acute toxicity in mice; iv, endovenous): > 1880 mg/kg
- mortality at 240 h (Acute toxicity in mice; [8]): 0%
- LD50 at 240 h (Acute toxicity in mice; oral): > 6250 mg/kg
- mortality at 240 h (Acute toxicity in mice; oral, max. dose 6250 mg/kg): 0%
- LD50 at 240 h (Acute toxicity in rats; im, intramuscular): > 3750 mg/kg
- mortality at 240 h (Acute toxicity in rats; [7]): 0%
- LD50 at 240 h (Acute toxicity in rats; iv, endovenous): > 1880 mg/kg
- mortality at 240 h (Acute toxicity in rats; [8]): 0%
- LD50 at 240 h (Acute toxicity in rats; oral): > 6250 mg/kg
- mortality at 240 h (Acute toxicity in rats; oral, max. dose 6250 mg/kg): 0%
- Appearance (15° C., 30% R.H., 0 days): 1
- Titre of glucosamine (15° C., 30% R.H., 0 days): 101.2%
- Appearance (15° C., 30% R.H., 7 days): 1
- Appearance (15° C., 30% R.H., 15 days): 1
- Appearance (15° C., 30% R.H., 30 days): 1
- Appearance (15° C., 30% R.H., 60 days): 1
- Appearance (15° C., 30% R.H., 120 days): 1
- Appearance (15° C., 30% R.H., 360 days): 1
- Appearance (15° C., 45% R.H., 0 days): 1
- Titre of glucosamine (15° C., 45% R.H., 0 days): 100.7%
- Appearance (15° C., 45% R.H., 7 days): 1
- Appearance (15° C., 45% R.H., 15 days): 1
- Appearance (15° C., 45% R.H., 30 days): 1
- Appearance (15° C., 45% R.H., 60 days): 1
- Appearance (15° C., 45% R.H., 120 days): 1
- Appearance (15° C., 45% R.H., 360 days): 1
- Appearance (15° C., 60% R.H., 0 days): 1
- Titre of glucosamine (15° C., 60% R.H., 0 days): 101.2%
- Appearance (15° C., 60% R.H., 3 days): 1
- Appearance (15° C., 60% R.H., 6 days): 1
- Appearance (15° C., 60% R.H., 12 days): 1
- Appearance (15° C., 60% R.H., 24 days): 1
- Appearance (15° C., 60% R.H., 36 days): 1
- Appearance (15° C., 60% R.H., 48 days): 1
- Appearance (25° C., 30% R.H., 0 days): 1
- Appearance (25° C., 30% R.H., 7 days): 1
- Appearance (25° C., 30% R.H., 15 days): 1
- Appearance (25° C., 30% R.H., 30 days): 1
- Appearance (25° C., 30% R.H., 60 days): 1
- Appearance (25° C., 30% R.H., 120 days): 1
- Appearance (25° C., 30% R.H., 360 days): 1
- Appearance (25° C., 45% R.H., 0 days): 1
- Titre of glucosamine (25° C., 45% R.H., 0 days): 98.9%
- Appearance (25° C., 45% R.H., 3 days): 1
- Appearance (25° C., 45% R.H., 6 days): 1
- Appearance (25° C., 45% R.H., 12 days): 1
- Appearance (25° C., 45% R.H., 24 days): 1
- Appearance (25° C., 45% R.H., 36 days): 1
- Appearance (25° C., 45% R.H., 48 days): 1
- Appearance (25° C., 60% R.H., 0 hours): 1
- Titre of glucosamine (25° C., 60% R.H., 0 hours): 100.7%
- Appearance (25° C., 60% R.H., 2 hours): 1
- Appearance (25° C., 60% R.H., 4 hours): 1
- Appearance (25° C., 60% R.H., 8 hours): 1
- Appearance (25° C., 60% R.H., 16 hours): 1
- Appearance (25° C., 60% R.H., 24 hours): 1
- Appearance (25° C., 60% R.H., 36 hours): 1
- Preservation after one year (25° C., 60% relative humidity, one year): perfectly preserved
- Colour change (40° C., 85% relative humidity, about 12 months): slight darkening of the colour
- Change in the subsequent 12 months (40° C., 85% relative humidity, months 12 to 24): remains constant
- Appearance scale value assigned in all the tests (all temperature/humidity conditions of Tables 1 to 6): 1
- Sensitivity to ambient relative humidity (even at high temperatures): practically negligible
- Titre of glucosamine (solid storage, 8 h): 101.2%
- Titre of glucosamine (solid storage, 24 h): 99.2%
- Titre of glucosamine (solid storage, 1152 h): 98.4%
- Titre of glucosamine (solid storage, 1440 h): 98.6%
- degraded at 8760 h (physchem; 85% rh): 3 to 4%
- remaining at 36 h (physchem; Titre of glucosamine): 100%
- remaining at 1152 h (physchem; Titre of glucosamine): 101%
